Legend:
wild oat = assay: Test E wild oat; type: in vivo, Avena fatua; settings: Preemergence
blackgrass = assay: Test E blackgrass; type: in vivo, Alopecurus myosuroides; settings: Preemergence
winter barley = assay: Test E winter barley; type: in vivo, Hordeum vulgare; settings: Preemergence
Italian ryegrass = assay: Test E Italian ryegrass; type: in vivo, Lolium multiflorum; settings: Preemergence
crabgrass = assay: Test B pre/postemergence crabgrass; type: in vivo, Digitaria sanguinalis
In short: (§1)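 Herbicidal effect was estimated by eye on a ten-point control scale after plants spent twelve to sixteen days in a greenhouse following soil or foliar treatment. Foliar sprays targeted plants at one to four leaves; all doses were formulated in a non-phytotoxic solvent with surfactant.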

Green foxtail [1] = assay: Test D green foxtail; type: in vivo
In short: (§2)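 Seeds were sown in greenhouse pots, one species per pot or compartment. Compounds were in a non-phytotoxic solvent mixture with surfactant; preemergence applications went on the sandy loam surface within one day of planting. Injury was rated visually after 14 to 21 days, 0 (none) to 100 (complete control).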

goosegrass = assay: Test D goosegrass; type: in vivo, Eleusine indica; settings: Preemergence, 0 to 100 scale
In short: as §2

velvetleaf = assay: Test B pre/postemergence velvetleaf; type: in vivo, Abutilon theophrasti; settings: for Velvetleaf plant response rating (0 to 10 scale): 0 is no effect; for Plant response rating, Velvetleaf: Rate 250 g/ha
In short: as §1

green foxtail [2] = assay: Test E green foxtail; type: in vivo, Setaria viridis; settings: Preemergence
winter wheat [3] = assay: Test E winter wheat; type: in vivo, Triticum aestivum; settings: Preemergence
winter wheat [4] = assay: Test E winter wheat; type: in vivo, Triticum aestivum; settings: Postemergence
In short: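 Postemergence: 60:40 sandy loam/greenhouse potting mix, 1- to 4-leaf stage. Formulation: solvent plus surfactant. Assessment: visual comparison with untreated controls at ~21–28 days.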

rice = assay: Test B flood test rice; type: in vivo, Oryza sativa
In short: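 Flood test on plants grown to the 2-leaf stage; treated plants kept in greenhouse twelve to sixteen days, then visually rated against controls on a 0 (no effect) to 10 (complete control) scale.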

corn = assay: Test B pre/postemergence corn; type: in vivo, Zea mays
In short: as §1

[5] = Rate 125 g/ha, 0 to 100 scale (0 no effect, 100 complete control)
[6] = Rate 500 g/ha, 0 to 100 scale where 0 is no effect and 100 is complete control
[7] = Postemergence, Rate 125 g/ha, scale of 0 to 10 where 0 is no effect and 10 is complete control
[8] = Postemergence, Rate 250 g/ha, scale 0 to 10, 0 no effect, 10 complete control
[9] = Preemergence, Rate 62 g/ha, scale 0 to 10 (0 no effect, 10 complete control)
[10] = Preemergence, Rate 125 g/ha, scale 0 to 10 (0 no effect, 10 complete control)
[11] = Preemergence, Rate 250 g/ha, scale of 0 to 10 where 0 is no effect and 10 is complete control
[12] = Preemergence, Rate 500 g/ha, scale 0 to 10 (0 no effect, 10 complete control)
[13] = Rate 500 g/ha, Postemergence, scale 0 to 10, 0 no effect, 10 complete control
[14] = Rate 64 g/ha, Preemergence; 0 to 100 scale, 0 no injury, 100 complete control
[15] = Rate 125 g/ha, Preemergence; 0 to 100 scale, 0 no injury, 100 complete control
[16] = Rate 125 g/ha, 0 no injury, 100 complete control
[17] = Preemergence, Rate 125 g/ha, 10 is complete control
[18] = Preemergence, scale of 0 to 10 where 0 is no effect and 10 is complete control
[19] = Rate 62 g/ha, Postemergence, scale of 0 to 10 where 0 is no effect and 10 is complete control
[20] = Postemergence, scale 0 to 10, 0 is no effect, 10 is complete control
[21] = Rate 250 g/ha, 0 to 100 scale (0 no effect, 100 complete control)
[22] = Rate 500 g/ha, 0 to 100 scale, 0 no effect, 100 complete control
[23] = Postemergence (flood test species), Rate 125 g/ha, scale of 0 to 10 where 0 is no effect and 10 is complete control
[24] = Rate 62 g/ha, Postemergence section, flood test species, scale of 0 to 10 where 0 is no effect and 10 is complete control
[25] = Rate 250 g/ha, Postemergence (flood test), scale 0 to 10, 0 is no effect, 10 is complete control
[26] = Rate 500 g/ha, listed under Postemergence (flood test species), scale 0 to 10, 0 no effect, 10 complete control
[27] = Rate 62 g/ha, 0 to 100 scale, 0 no effect, 100 complete control

C=CCn1c(=O)on(C(=O)N(c2ccc(Cl)cc2)C(C)C)c1=O [Compound 105]
Plant response rating, Wild oat (wild oat; [5]): 30
Plant response rating, Wild oat (wild oat; [6]): 55
Plant response rating, Blackgrass (blackgrass; [5]): 20
Plant response rating, Blackgrass (blackgrass; Rate 250 g/ha, 0 to 100 scale): 50
Plant response rating, Blackgrass (blackgrass; [6]): 50
Plant response rating, Barley (winter) (winter barley; [5]): 0
Plant response rating, Barley (winter) (winter barley; Rate 250 g/ha, 0 to 100 scale): 0
Plant response rating, Barley (winter) (winter barley; [6]): 10
Plant response rating, I. Ryegrass (Italian ryegrass; [5]): 30
Plant response rating, I. Ryegrass (Italian ryegrass; Rate 250 g/ha, 0 to 100 scale): 30
Plant response rating, I. Ryegrass (Italian ryegrass; [6]): 85
Crabgrass plant response rating (crabgrass; [7]): 7
Crabgrass plant response rating (crabgrass; [8]): 7
Crabgrass plant response rating (crabgrass; [9]): 2
Plant response rating, Crabgrass (crabgrass; [10]): 8
Plant response rating, Crabgrass (crabgrass; [11]): 8
Crabgrass plant response rating (crabgrass; [12]): 9
Crabgrass plant response rating (crabgrass; [13]): 9
Plant response rating, Green foxtail (Green foxtail [1]; Preemergence; Rate 16 g/ha; 0 to 100 scale, 0 no injury, 100 complete control): 75
Plant response rating, Green foxtail (Green foxtail [1]; Preemergence; Rate 32 g/ha; 0 to 100 scale, 0 no injury, 100 complete control): 85
Plant response rating, Green foxtail (Green foxtail [1]; Rate 16 g/ha; Preemergence; 0 to 100 scale, 0 no injury, 100 complete control): 75
Plant response rating, Green foxtail (Green foxtail [1]; Rate 32 g/ha; Preemergence; 0 to 100 scale, 0 no injury, 100 complete control): 100
Green foxtail plant response rating (Green foxtail [1]; [14]): 100
Plant response rating, Green foxtail (Green foxtail [1]; [14]): 100
Green foxtail plant response rating (Green foxtail [1]; [15]): 100
Plant response rating, Green foxtail (Green foxtail [1]; [15]): 100
Plant response rating, Green foxtail (Green foxtail [1]; Rate 250 g/ha; Preemergence; 0 to 100 scale): 100
Plant response rating, Green foxtail (Green foxtail [1]; Rate 500 g/ha, Preemergence; 0 to 100 scale): 100
Plant response rating, Goosegrass (goosegrass; Rate 16 g/ha, 0 no injury, 100 complete control): 85
Plant response rating, Goosegrass (goosegrass; Rate 32 g/ha, 0 no injury, 100 complete control): 98
Plant response rating, Goosegrass (goosegrass; Rate 64 g/ha, 0 no injury, 100 complete control): 98
Plant response rating, Goosegrass (goosegrass; [16]): 98
Plant response rating, Goosegrass (goosegrass; Rate 250 g/ha): 100
Plant response rating, Goosegrass (goosegrass; Rate 500 g/ha): 100
Velvetleaf plant response rating (velvetleaf; [7]): 0
Velvetleaf plant response rating (velvetleaf; [9]): 0
Velvetleaf plant response rating (0 to 10 scale) (velvetleaf; [17]): 4
Plant response rating, Velvetleaf (velvetleaf; [18]): 5
Velvetleaf plant response rating (velvetleaf; [12]): 6
Velvetleaf plant response rating (velvetleaf; [19]): 0
Plant response rating, Velvetleaf (velvetleaf; [20]): 3
Velvetleaf plant response rating (velvetleaf; [13]): 4
Plant response rating, Green foxtail (green foxtail [2]; [5]): 55
Plant response rating, Green foxtail (green foxtail [2]; Rate 250 g/ha, 0 to 100 scale): 90
Plant response rating, Green foxtail (green foxtail [2]; [6]): 100
Plant response rating, Wheat (winter) (winter wheat [3]; [5]): 10
Plant response rating, Wheat (winter) (winter wheat [3]; Rate 250 g/ha, 0 to 100 scale): 0
Plant response rating, Wheat (winter) (winter wheat [3]; [6]): 10
Plant response rating, Wheat (winter) (winter wheat [4]; Rate 125 g/ha, 0 to 100 scale): 10
Plant response rating, Wheat (winter) (winter wheat [4]; [21]): 10
Plant response rating, Wheat (winter) (winter wheat [4]; [22]): 20
Rice plant response rating (rice; [23]): 0
Rice plant response rating (rice; [24]): 0
Plant response rating, Rice (rice; [25]): 0
Rice plant response rating (rice; Rate 250 g/ha, headed Pre-emergence (flood test species), scale 0 to 10 (0 no effect, 10 complete control)): 0
Plant response rating, Rice (rice; Rate 500 g/ha, headed Pre-emergence (flood test species), scale 0 to 10 (0 no effect, 10 complete control)): 0
Rice plant response rating (rice; [26]): 0
Rice plant response rating (rice; Rate 1000 g/ha, Pre-emergence (as headed), scale 0 to 10): 0
Rice plant response rating (rice; Rate 2000 g/ha, Pre-emergence (as headed), scale 0 to 10): 0
Corn plant response rating (corn; [7]): 0
Corn plant response rating (corn; [8]): 0
Corn plant response rating (corn; [9]): 0
Plant response rating, Corn (corn; [10]): 0
Plant response rating, Corn (corn; [11]): 2
Corn plant response rating (corn; [12]): 3
Corn plant response rating (corn; [19]): 0
Corn plant response rating (corn; [13]): 2

CC(C)N(C(=O)n1oc(=O)n(C(C)C)c1=O)c1ccc(Cl)cc1 [Compound 114]
Plant response rating, Wild oat (wild oat; [27]): 20
Plant response rating, Wild oat (wild oat; [5]): 40
Plant response rating, Wild oat (wild oat; [6]): 70
Plant response rating, Blackgrass (blackgrass; [27]): 30
Plant response rating, Blackgrass (blackgrass; [5]): 50
Plant response rating, Blackgrass (blackgrass; Rate 250 g/ha, 0 to 100 scale): 50
Plant response rating, Blackgrass (blackgrass; [6]): 100
Plant response rating, Barley (winter) (winter barley; [27]): 0
Plant response rating, Barley (winter) (winter barley; [5]): 5
Plant response rating, Barley (winter) (winter barley; Rate 250 g/ha, 0 to 100 scale): 10
Plant response rating, Barley (winter) (winter barley; [6]): 40
Plant response rating, I. Ryegrass (Italian ryegrass; [27]): 20
Plant response rating, I. Ryegrass (Italian ryegrass; [5]): 30
Plant response rating, I. Ryegrass (Italian ryegrass; Rate 250 g/ha, 0 to 100 scale): 100
Plant response rating, I. Ryegrass (Italian ryegrass; [6]): 95
Crabgrass plant response rating (crabgrass; [7]): 8
Crabgrass plant response rating (crabgrass; [8]): 9
Crabgrass plant response rating (crabgrass; [9]): 2
Plant response rating, Crabgrass (crabgrass; [10]): 7
Plant response rating, Crabgrass (crabgrass; [11]): 9
Crabgrass plant response rating (crabgrass; [12]): 9
Crabgrass plant response rating (crabgrass; [19]): 2
Crabgrass plant response rating (crabgrass; [13]): 9
Green foxtail plant response rating (Green foxtail [1]; [15]): 100
Plant response rating, Green foxtail (Green foxtail [1]; [15]): 100
Plant response rating, Goosegrass (goosegrass; [16]): 100
Velvetleaf plant response rating (velvetleaf; [7]): 1
Velvetleaf plant response rating (velvetleaf; [9]): 4
Velvetleaf plant response rating (0 to 10 scale) (velvetleaf; [17]): 4
Plant response rating, Velvetleaf (velvetleaf; [18]): 5
Velvetleaf plant response rating (velvetleaf; [12]): 6
Velvetleaf plant response rating (velvetleaf; [19]): 0
Plant response rating, Velvetleaf (velvetleaf; [20]): 3
Velvetleaf plant response rating (velvetleaf; [13]): 3
Plant response rating, Green foxtail (green foxtail [2]; [27]): 45
Plant response rating, Green foxtail (green foxtail [2]; [5]): 100
Plant response rating, Green foxtail (green foxtail [2]; Rate 250 g/ha, 0 to 100 scale): 100
Plant response rating, Green foxtail (green foxtail [2]; [6]): 85
Plant response rating, Wheat (winter) (winter wheat [3]; [27]): 0
Plant response rating, Wheat (winter) (winter wheat [3]; [5]): 10
Plant response rating, Wheat (winter) (winter wheat [3]; Rate 250 g/ha, 0 to 100 scale): 0
Plant response rating, Wheat (winter) (winter wheat [3]; [6]): 0
Plant response rating, Wheat (winter) (winter wheat [4]; Rate 62 g/ha, 0 to 100 scale): 0
Plant response rating, Wheat (winter) (winter wheat [4]; Rate 125 g/ha, 0 to 100 scale): 10
Plant response rating, Wheat (winter) (winter wheat [4]; [21]): 60
Plant response rating, Wheat (winter) (winter wheat [4]; [22]): 20
Rice plant response rating (rice; [23]): 0
Rice plant response rating (rice; [24]): 0
Plant response rating, Rice (rice; [25]): 0
Rice plant response rating (rice; [26]): 0
Corn plant response rating (corn; [7]): 0
Corn plant response rating (corn; [8]): 0
Corn plant response rating (corn; [9]): 0
Plant response rating, Corn (corn; [10]): 0
Plant response rating, Corn (corn; [11]): 7
Corn plant response rating (corn; [12]): 9
Corn plant response rating (corn; [19]): 0
Corn plant response rating (corn; [13]): 0

Reference: patent publication US6737383B1, “Herbicidal oxadiazolidines” (priority 1999, dated 2004)
